In BigSolDB 2.1:

O=C(O)c1cc([N+](=O)[O-])ccc1O
solubility (mole fraction)
Settings	278.15 K	283.15 K	288.15 K	293.15 K	298.15 K	303.15 K	308.15 K	313.15 K	318.15 K	323.15 K
in 1,4-dioxane	–	–	0.105	0.112	0.12	0.129	0.137	0.147	0.158	0.168
in DMF	0.0752	0.0819	0.0894	0.0993	0.111	0.126	0.143	0.161	0.181	0.204
in NMP	0.105	0.111	0.119	0.13	0.141	0.156	0.17	0.187	0.204	0.223
in acetonitrile	0.0327	0.0366	0.0416	0.0481	0.0553	0.0632	0.0724	0.0814	0.0908	0.102
in ethanol	0.0281	0.0307	0.0338	0.0379	0.0429	0.0481	0.0541	0.0605	0.0675	0.0752
in ethyl acetate	0.0202	0.0234	0.027	0.031	0.0355	0.0404	0.0455	0.0509	0.0566	0.063
in ethylene glycol	0.00911	0.0116	0.0142	0.0164	0.0197	0.0233	0.0262	0.0308	0.035	0.0393
in isobutanol	0.0125	0.0149	0.0179	0.0211	0.0252	0.0296	0.0343	0.0383	0.043	0.0495
in isopropanol	0.0255	0.0286	0.0322	0.0367	0.0406	0.046	0.052	0.0575	0.0641	0.0728
in methanol	0.0316	0.0345	0.038	0.0427	0.0479	0.0538	0.0596	0.0661	0.0728	0.0807
in n-butanol	0.0173	0.0203	0.0237	0.0275	0.032	0.0368	0.0421	0.0474	0.0533	0.06
in n-propanol	0.0232	0.0266	0.0302	0.0342	0.0387	0.0433	0.0488	0.0537	0.0597	0.0656
in water	3.03e-05	3.95e-05	5.22e-05	6.76e-05	8.62e-05	0.000107	0.000133	0.000165	0.000202	0.000253
